“And” between values parts separate entries of the source, which are not always exact repeats. Equal entries are not always repeated. Inconclusive results and toxic doses are left out. How the source made its calls: active means survival T/C of 150% or more; inactive means T/C below 125% in these data. Peptide text beside a SMILES is read from it. * marks the point of attachment. Cbz = O=C(OCc1ccccc1)*
Tested on: P388 leukemia ip, CD2F1 mice, survival T/C
Experiment: NCI In Vivo Anticancer Drug Screen. Data for tumor model P388 Leukemia (intraperitoneal) in CD2F1 (CDF1) mice
Conditions: endpoint: median survival time, higher = longer survival
Summary of the method: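 Mice carrying the transplanted tumor received test compound or vehicle. Survival was recorded in each group, and the value is the treated-group measurement divided by that of the vehicle-treated control group.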

[1] = dose: 50.0 mg/kg/injection, schedule: Q01DX005 (ip), vehicle: saline with Tween-80
[2] = dose: 100.0 mg/kg/injection, schedule: Q01DX005 (ip), vehicle: saline with Tween-80
[3] = dose: 50.0 mg/kg/injection, schedule: Q01DX005 (ip), vehicle: Klucel (hydroxypropylcellulose) (HPC)
[4] = dose: 100.0 mg/kg/injection, schedule: Q01DX005 (ip), vehicle: Klucel (hydroxypropylcellulose) (HPC)
[5] = dose: 200.0 mg/kg/injection, schedule: Q01DX005 (ip), vehicle: Klucel (hydroxypropylcellulose) (HPC)
[6] = dose: 100.0 mg/kg/injection, schedule: Q01DX001 (ip), vehicle: saline with Tween-80
[7] = dose: 200.0 mg/kg/injection, schedule: Q01DX001 (ip), vehicle: saline with Tween-80
[8] = dose: 100.0 mg/kg/injection, schedule: Q04DX002 (ip), vehicle: saline with Tween-80
[9] = dose: 200.0 mg/kg/injection, schedule: Q04DX002 (ip), vehicle: saline with Tween-80
[10] = dose: 50.0 mg/kg/injection, schedule: Q01DX009 (ip), vehicle: saline with Tween-80
[11] = dose: 100.0 mg/kg/injection, schedule: Q01DX009 (ip), vehicle: saline with Tween-80
[12] = dose: 200.0 mg/kg/injection, schedule: Q01DX009 (ip), vehicle: saline with Tween-80
[13] = dose: 60.0 mg/kg/injection, schedule: Q01DX005 (ip), vehicle: saline with Tween-80
[14] = dose: 100.0 mg/kg/injection, schedule: Q04DX003 (ip), vehicle: Klucel (hydroxypropylcellulose) (HPC)
[15] = dose: 200.0 mg/kg/injection, schedule: Q04DX003 (ip), vehicle: Klucel (hydroxypropylcellulose) (HPC)
[16] = dose: 50.0 mg/kg/injection, schedule: Q01DX009 (ip), vehicle: Klucel (hydroxypropylcellulose) (HPC)
[17] = dose: 100.0 mg/kg/injection, schedule: Q01DX009 (ip), vehicle: Klucel (hydroxypropylcellulose) (HPC)
[18] = dose: 200.0 mg/kg/injection, schedule: Q01DX009 (ip), vehicle: Klucel (hydroxypropylcellulose) (HPC)
[19] = dose: 12.5 mg/kg/injection, schedule: Q01DX009 (ip), vehicle: other
[20] = dose: 25.0 mg/kg/injection, schedule: Q01DX009 (ip), vehicle: other
[21] = dose: 50.0 mg/kg/injection, schedule: Q01DX009 (ip), vehicle: other
[22] = dose: 100.0 mg/kg/injection, schedule: Q01DX009 (ip), vehicle: other
[23] = dose: 200.0 mg/kg/injection, schedule: Q01DX009 (ip), vehicle: other

Measured: T/C

NC(=O)C1CNCC(C(N)=O)C1 (configuration not stated)
inactive: dose: 50.0 mg/kg/injection, schedule: Q01DX009 (ip), vehicle: saline 100 % of control and 98 % of control | dose: 100.0 mg/kg/injection, schedule: Q01DX009 (ip), vehicle: saline 98 % of control | dose: 200.0 mg/kg/injection, schedule: Q01DX009 (ip), vehicle: saline 99 % of control

COc1ccc2c(c1O)-c1cc(O)cc3c1[C@@H](C2)N(C)CC3
inactive: [1] 104 % of control | [2] 104 % of control

COC(=O)C1=C(/C=C/C(C)=O)NC(C)=C(C(=O)OC(C)C)C1c1ccccc1Cl (configuration not stated)
inactive: dose: 25.0 mg/kg/injection, schedule: Q01DX005 (ip), vehicle: Klucel (hydroxypropylcellulose) (HPC) 105 % of control | [3] 99 % of control and 108 % of control and 96 % of control | [4] 102 % of control and 104 % of control and 113 % of control | [5] 108 % of control and 116 % of control

COc1ccc(C2c3cc4c(cc3OC(C)(OC)C2C)OCO4)c(OC)c1OC (configuration not stated)
inactive: [6] 94 % of control | [7] 94 % of control

CC(NC(=O)OCc1ccccc1)C(=O)NC(CCCN=C(N)N)C(=O)O (stereo not drawn) (Cbz-Ala-Arg-OH; configuration not given here)
inactive: [1] 100 % of control | [2] 105 % of control | dose: 200.0 mg/kg/injection, schedule: Q01DX005 (ip), vehicle: saline with Tween-80 108 % of control

C[N+]1(C)CCOCC1
inactive: dose: 1.56 mg/kg/injection, schedule: Q01DX009 (ip), vehicle: saline 94 % of control | dose: 6.25 mg/kg/injection, schedule: Q01DX009 (ip), vehicle: saline 100 % of control and 101 % of control | dose: 12.5 mg/kg/injection, schedule: Q01DX009 (ip), vehicle: saline 98 % of control | dose: 25.0 mg/kg/injection, schedule: Q01DX009 (ip), vehicle: saline 88 % of control

CCOC(=O)C1(CC(C)C)CCOC1=O (configuration not stated)
inactive: [3] 99 % of control | [4] 96 % of control | [5] 97 % of control

CC1CCN(C(=O)c2cc(Nc3ccnc4cc(Cl)ccc34)ccc2O)CC1
inactive: [8] 99 % of control | [9] 99 % of control | dose: 400.0 mg/kg/injection, schedule: Q04DX002 (ip), vehicle: saline with Tween-80 89 % of control

CC(C)(O)Cn1ccccc1=O
inactive: dose: 100.0 mg/kg/injection, schedule: Q04DX003 (ip), vehicle: saline 98 % of control | dose: 200.0 mg/kg/injection, schedule: Q04DX003 (ip), vehicle: saline 97 % of control | dose: 400.0 mg/kg/injection, schedule: Q04DX003 (ip), vehicle: saline 104 % of control

Nc1nc(N)nc(N)n1 (tested in a mixture with another compound)
inactive: [10] 98 % of control | [11] 92 % of control | [12] 88 % of control

C1CC[N+](=c2nc(N3CCOCC3)ss2)C1
inactive: dose: 50.0 mg/kg/injection, schedule: Q04DX002 (ip), vehicle: saline with Tween-80 100 % of control | [8] 99 % of control | [9] 99 % of control

COc1ccc(Cc2coc3ccccc3c2=O)cc1OC
inactive: [13] 102 % of control | dose: 120.0 mg/kg/injection, schedule: Q01DX005 (ip), vehicle: saline with Tween-80 97 % of control | dose: 240.0 mg/kg/injection, schedule: Q01DX005 (ip), vehicle: saline with Tween-80 97 % of control

Cc1cc(N(CCCl)CCCl)ccc1NC(=O)c1ccccc1
inactive: dose: 50.0 mg/kg/injection, schedule: Q04DX003 (ip), vehicle: Klucel (hydroxypropylcellulose) (HPC) 109 % of control | [14] 118 % of control | [15] 116 % of control

COC(=O)[CH2][Sn]([CH2]C(=O)OC)([c]1ccccc1)[c]1ccccc1
inactive: dose: 0.39 mg/kg/injection, schedule: Q01DX005 (ip), vehicle: Klucel (hydroxypropylcellulose) (HPC) 120 % of control | dose: 0.79 mg/kg/injection, schedule: Q01DX005 (ip), vehicle: Klucel (hydroxypropylcellulose) (HPC) 112 % of control

COc1ccc2c(c1OC)C[N+]1(C)CCc3cc4c(cc3C1=C2C)OCO4 (configuration not stated)
inactive: dose: 1.56 mg/kg/injection, schedule: Q01DX005 (ip), vehicle: Klucel (hydroxypropylcellulose) (HPC) 99 % of control | dose: 3.12 mg/kg/injection, schedule: Q01DX005 (ip), vehicle: Klucel (hydroxypropylcellulose) (HPC) 99 % of control | dose: 6.25 mg/kg/injection, schedule: Q01DX005 (ip), vehicle: Klucel (hydroxypropylcellulose) (HPC) 103 % of control and 113 % of control

O/N=C1\CCCCC1C(O)c1c(Cl)cccc1Cl (configuration not stated)
inactive: [10] 102 % of control | [11] 103 % of control | [12] 96 % of control

Cc1nn(C(=O)c2ccncc2)c(C)c1N=Nc1ccccc1[N+](=O)[O-]
inactive: [16] 102 % of control | [17] 96 % of control | [18] 98 % of control

CC1(C)CC(C)(OC(=O)c2ccccc2Cl)N=N1 (configuration not stated)
inactive: dose: 11.0 mg/kg/injection, schedule: Q01DX009 (ip), vehicle: other 97 % of control | [19] 107 % of control | dose: 16.5 mg/kg/injection, schedule: Q01DX009 (ip), vehicle: other 97 % of control | [20] 108 % of control | dose: 37.5 mg/kg/injection, schedule: Q01DX009 (ip), vehicle: other 116 % of control | [21] 103 % of control | [22] 112 % of control | [23] 116 % of control

C=CC(=NC(C)(C)C)N(CC)CC
inactive: dose: 15.0 mg/kg/injection, schedule: Q01DX005 (ip), vehicle: saline with Tween-80 103 % of control | dose: 30.0 mg/kg/injection, schedule: Q01DX005 (ip), vehicle: saline with Tween-80 105 % of control | [13] 100 % of control and 106 % of control

Cc1ccccc1-[n+]1nc(-c2ccccc2)nn1-c1ccccc1
inactive: dose: 0.31 mg/kg/injection, schedule: Q01DX009 (ip), vehicle: saline with Tween-80 95 % of control | dose: 0.63 mg/kg/injection, schedule: Q01DX009 (ip), vehicle: saline with Tween-80 104 % of control | dose: 1.25 mg/kg/injection, schedule: Q01DX009 (ip), vehicle: saline with Tween-80 95 % of control

CCCCCCCCCCCCCC1C=CCC1 (configuration not stated)
inactive: dose: 100.0 mg/kg/injection, schedule: Q01DX001 (ip), vehicle: saline 101 % of control | dose: 200.0 mg/kg/injection, schedule: Q01DX001 (ip), vehicle: saline 99 % of control | dose: 400.0 mg/kg/injection, schedule: Q01DX001 (ip), vehicle: saline 100 % of control

c1ccc(-c2ccc(-c3cn4c(n3)SCC4)cc2)cc1
inactive: dose: 200.0 mg/kg/injection, schedule: Q01DX001 (ip), vehicle: Klucel (hydroxypropylcellulose) (HPC) 91 % of control

CNC(=S)NNc1ccccn1
inactive: [19] 105 % of control | [20] 102 % of control | [21] 104 % of control | [22] 101 % of control | [23] 95 % of control

CC12CC3(C)CC(C)(C1)CC(C(Cl)C(=O)NC1CCCCC1)(C2)C3 (configuration not stated)
inactive: [16] 110 % of control | [17] 107 % of control | [18] 97 % of control

O=C(OC(C(F)(F)F)C(F)(F)F)c1ccccc1
inactive: [14] 105 % of control | [15] 101 % of control | dose: 400.0 mg/kg/injection, schedule: Q04DX003 (ip), vehicle: Klucel (hydroxypropylcellulose) (HPC) 109 % of control

O=C(Nc1ccc(Cl)cc1)/C(Cl)=C1/Sc2ccccc2NC1=O
inactive: [6] 97 % of control | [7] 91 % of control | dose: 400.0 mg/kg/injection, schedule: Q01DX001 (ip), vehicle: saline with Tween-80 91 % of control

Source: PubChem BioAssay AID330 (DTP/NCI, 2004)
